Data from EP4631960A1, “PEPTIDE HAVING INHIBITORY ACTIVITY AGAINST OSTEOCLAST DIFFERENTIATION, AND USE THEREOF” (Caregen Co., Ltd., priority 2022, dated 2024).
Peptide text beside a SMILES is read from it.

Test system: RAW264.7 cells
Experiment: CCK-8 cytotoxicity evaluation
Assay type: cell-based
Conditions: CCK-8 activity at 450 nm, after 3 days, FIG. 3
Protocol: Then, after 3 days, CCK-8 (Dojindo, CCK-8 kit) solution was added to 1/10 volume of the culture medium, diluted, and incubated for 2 hours. Thereafter, the culture medium was sampled and CCK-8 activity was confirmed at a wavelength of 450 nm using a microplate reader.

In the case of `CC[C@H](C)[C@H](N)C(=O)N[C@H](C(=O)N[C@@H](C)C(=O)N1CCC[C@H]1C(=O)N[C@H](C(=O)NCC(=O)N[C@@H](Cc1ccc(O)cc1)C(=O)N[C@@H](Cc1ccc(O)cc1)C(=O)NCC(=O)N[C@@H](CC(N)=O)C(=O)O)[C@@H](C)O)[C@@H](C)CC` [Peptide-2, IIAPTGYYGN] (H-IIAPTGYYGN-OH), the cytotoxicity is reported as “did not exhibit cytotoxicity”.
